Reference: patent EP0552417B1, “Cyclic peptides and use thereof” (priority 1991, dated 1993)
Non-standard residues stand in square brackets, D forms with d. Residues, ends and D or L forms follow the SMILES beside them. *: point of attachment. NMeF = CN[C@@H](Cc1ccccc1)C(=O)O; X3 = O=C(Cc1c[nH]c2ccccc12)*; Orn = NCCC[C@H](N)C(=O)O; PhAc = O=C(Cc1ccccc1)*; Sar = CNCC(=O)O

Tests used:
[1] = biological target: T1, endothelin receptor A (ETA) (Sus scrofa, UniProt Q29010); assay: Assay of affinity for receptor (1): binding activity on ETA receptor, 125I-labeled endothelin-1, porcine heart membrane fraction; design: key: relative specific activity; reference cyclic pentapeptide ETA binding = 1.0; details: specific activity, taking the binding activity of control cyclo[-D-Glu-Ala-D-aIle-Leu-D-Trp-] on receptor A as 1.0, 25°C, 1 hour
T1 construct: A membrane fraction prepared from the porcine heart; from tissue; host or cells: porcine heart membrane fraction
T1 sequence (Q29010 21-427): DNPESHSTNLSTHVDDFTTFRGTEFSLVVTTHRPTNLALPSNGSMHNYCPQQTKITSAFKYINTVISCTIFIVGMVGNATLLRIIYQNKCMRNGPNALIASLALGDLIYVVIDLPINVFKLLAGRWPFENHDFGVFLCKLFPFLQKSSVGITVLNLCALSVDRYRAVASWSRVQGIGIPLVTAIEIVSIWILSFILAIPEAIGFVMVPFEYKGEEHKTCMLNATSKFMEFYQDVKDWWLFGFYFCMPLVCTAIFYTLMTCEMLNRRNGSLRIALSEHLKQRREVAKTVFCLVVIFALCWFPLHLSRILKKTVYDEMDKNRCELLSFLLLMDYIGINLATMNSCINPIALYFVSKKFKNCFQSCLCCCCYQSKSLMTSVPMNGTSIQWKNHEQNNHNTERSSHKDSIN
Procedure: Assay of Affinity for Receptor (1) ... Binding Activity on ETA Receptor
A membrane fraction prepared from the porcine heart was diluted to 0.15 mg/ml by using a buffer solution for assay, and 100 µl of the resulting suspension of the membrane fraction was poured into each assay tube to use for assay. To this suspension of the membrane fraction was added 2 µl of 5 nM ^125I-labeled endothelin-1 solution. Further, 3 µl of a test peptide solution was added thereto, followed by incubation at a temperature of 25°C for 1 hour. Then, the resulting suspension was diluted with 900 µl of the buffer solution for assay cooled with ice, and thereafter separated into a supernatant and a precipitate by centrifugation at 12,000 X g for 10 minutes. Cell membranes and an endothelin receptor A (ETA) embedded therein were contained in the precipitate, and radioactive iodine-labeled endothelin combined with the receptor was also recovered in the precipitate. Accordingly, the amount of radioactive iodine-labeled endothelin combined with the endothelin receptor A (ETA) was determined by measuring the amount of radioactive iodine contained in the precipitate with a gamma-ray counter. The cyclic pentapeptide described in Japanese Patent Application No. 2-413328/1990, cyclo[-D-Glu-Ala-D-aIle-Leu-D-Trp-], was used as a control compound. The numerical value of ETA shown in Table 1 is the value of specific activity, taking the binding activity of this cyclic pentapeptide on the receptor A as 1.0. The binding activity (IC50) of this cyclic pentapeptide on the ETA receptor is 2x10^-6 M.

ETB = ETB radio receptor assay *2, 125I-endothelin-1, guinea pig kidney crude membrane fraction; format: binding, Guinea pigs; details: relative activity, 37 °C, 90 minutes
Procedure: ETB Radio Receptor Assay *2
In the endothelin radio receptor assay, guinea pigs' kidneys were used. Guinea pigs (Std Hartrey, male 250 g, Japan SLC Ltd.) were made to have a cerebral concussion and sacrificed by bleeding from carotid arteries to pick up the kidneys and removed fat therefrom to prepare the kidneys. The obtained kidneys were sliced and homogenized by politron homogenizer in 20 ml of 50 mM Tris-HCl buffer [pH 7.4; 20 mM NaHCO3, 0.1 mM PMSF (Phenylmethylsulfonyl Fluoride), 1 mM EDTA (Ethylenediaminetetraacetic acid)] per one kidney. The homogenized kidney was applied to a centrifugation at 1,000 x g for 15 minutes and the supernatant was further applied to a centrifugation for 20 minutes at 30,000 x g. The resulting precipitate was twice washed with 50 mM Tris-HCl buffer (pH 7.4) containing 0.1 mM PMSF, 1 mM EDTA. The resultant was stored at -80 °C as a crude receptor membrane fraction and was used as the suspension in the following buffer when necessary.
740 Bq of ^125I-endothelin-1 (81.4 TBq/mmol, Du Pont, USA) as a radio ligand, the crude membrane fraction (2.1 µg protein) and samples were added to the following buffer. The reaction was performed at 37 °C, for 90 minutes in 0.2 ml of the buffer [50 mM Tris-HCl buffer (pH 7.4) containing 0.1 mM PMSF, 1 mM EDTA, 0.2% bovine serum albumin].
The reaction was stopped by fast filtration on a glass filter (GF/B, Wattman, USA) by Cell Harvestor (290 PHD, Cambridge-Technology, Great Britain), and the filter was three times washed with 50 mM Tris-HCl buffer (pH 7.4). Radio activity remained on the filter was assayed by a gamma counter.

Row | SMILES | Binding Activity on ET Receptor (R. act.) ETA [1] | Binding Activity on ET Receptor (R. act.) ETB*2 (ETB)
1 | CC(C)C[C@@H]1NC(=O)[C@@H](CC(C)C)NC(=O)[C@H](C)NC(=O)[C@H](CCC(=O)O)NC(=O)[C@@H](CC(=O)O)NC(=O)[C@@H](Cc2c[nH]c3ccccc23)NC1=O [Example 7, cyclo[-D-Asp-Glu-Ala-D-Leu-Leu-D-Trp-]] (cyclo(A[dL]L[dW][dD]E)) | 6.5 | 7.1
2 | CC(C)C[C@@H]1NC(=O)[C@@H](CC(C)C)NC(=O)[C@H](CC(=O)O)NC(=O)[C@H](Cc2c[nH]c3ccccc23)NC(=O)[C@@H](CC(=O)O)NC(=O)[C@@H](Cc2cn(C)c3ccccc23)NC1=O [Example 95, Cyclo[-D-Asp-Trp-Asp-D-Leu-Leu-D-Trp(Me)-]] | 110 | 330
3 | CC(C)C[C@@H]1NC(=O)[C@@H](CC(C)C)NC(=O)[C@H](CC(=O)O)NC(=O)[C@H](CCCNC(=O)Cc2ccccc2)NC(=O)[C@@H](CC(=O)O)NC(=O)[C@@H](Cc2c[nH]c3ccccc23)NC1=O [Example 80, cyclo[-D-Asp-Orn(COCH2Ph)-Asp-D-Leu-Leu-D-Trp-]] (cyclo(D[dL]L[dW][dD][Orn](PhAc))) | 260 | 380
4 | CC(C)C[C@@H]1NC(=O)[C@@H](CC(C)C)NC(=O)CNC(=O)[C@H](C)NC(=O)[C@@H](CCC(=O)O)NC(=O)[C@@H](Cc2c[nH]c3ccccc23)NC1=O [Example 40, Cyclo[-D-Glu-Ala-Gly-D-Leu-Leu-D-Trp-]] (cyclo(AG[dL]L[dW][dE])) | 1.4 | 
5 | CC(C)C[C@@H]1NC(=O)[C@@H](CC(C)C)NC(=O)[C@H](CC(=O)O)NC(=O)[C@H](CCCNC(=O)Cc2c[nH]c3ccccc23)NC(=O)[C@@H](CC(=O)O)NC(=O)[C@@H](Cc2c[nH]c3ccccc23)NC1=O [Example 82, cyclo[-D-Asp-Orn(COCH2-Ind)-Asp-D-Leu-Leu-D-Trp-]] (cyclo(D[dL]L[dW][dD][Orn](X3))) | 240 | 500
6 | CC(C)C[C@@H]1NC(=O)[C@@H](CC(C)C)NC(=O)[C@H](CC(=O)O)NC(=O)[C@H](Cc2ccccc2)N(C)C(=O)[C@@H](CC(=O)O)NC(=O)[C@@H](Cc2c[nH]c3ccccc23)NC1=O [Example 48, Cyclo[-D-Asp-N-MePhe-Asp-D-Leu-Leu-D-Trp-]] (cyclo(D[dL]L[dW][dD][NMeF])) | 2.7 | 13
7 | CC(C)C[C@H]1NC(=O)[C@H](CC(=O)O)NC(=O)[C@H](C)NC(=O)[C@@H](CC(=O)O)NC(=O)[C@@H](Cc2c[nH]c3ccccc23)NC(=O)[C@H](Cc2ccccc2)NC1=O [Example 57, Cyclo[-D-Asp-Ala-Asp-D-Leu-Phe-D-Trp-]] (cyclo(AD[dL]F[dW][dD])) |  | 2.0
8 | CC(C)C[C@@H]1NC(=O)[C@@H](CC(C)C)NC(=O)[C@H](C)NC(=O)CNC(=O)[C@@H](CC(=O)O)NC(=O)[C@@H](Cc2c[nH]c3ccccc23)NC1=O [Example 5, cyclo[-D-Asp-Gly-Ala-D-Leu-Leu-D-Trp-]] (cyclo(A[dL]L[dW][dD]G)) | 1.3 | 

Now from value to compound:

Row | Binding Activity on ET Receptor (R. act.) ETA [1] | Binding Activity on ET Receptor (R. act.) ETB*2 (ETB) | SMILES
9 | 8.1 | 75 | CC(C)C[C@@H]1NC(=O)[C@@H](CC(C)C)NC(=O)[C@H](CC(=O)O)NC(=O)CN(C)C(=O)[C@@H](CC(=O)O)NC(=O)[C@@H](Cc2c[nH]c3ccccc23)NC1=O [Example 46, Cyclo[-D-Asp-Sar-Asp-D-Leu-Leu-D-Trp-]] (cyclo(D[dL]L[dW][dD][Sar]))
10 | 7.9 | 23 | CC(C)C[C@@H]1NC(=O)[C@@H](CC(C)C)NC(=O)[C@H](CCC(=O)O)NC(=O)[C@H](C)NC(=O)[C@@H](CC(=O)O)NC(=O)[C@@H](Cc2c[nH]c3ccccc23)NC1=O [Example 3, cyclo[-D-Asp-Ala-Glu-D-Leu-Leu-D-Trp-]] (cyclo(AE[dL]L[dW][dD]))
11 | 5.7 | 5.3 | CC(C)C[C@@H]1NC(=O)[C@@H](CC(C)C)NC(=O)[C@H](C)NC(=O)[C@@H](CCC(=O)O)NC(=O)[C@@H](CC(=O)O)NC(=O)[C@@H](Cc2c[nH]c3ccccc23)NC1=O [Example 28, Cyclo[-D-Asp-D-Glu-Ala-D-Leu-Leu-D-Trp-]] (cyclo(A[dL]L[dW][dD][dE]))
12 | 3.7 | 22 | CC(C)C[C@@H]1NC(=O)[C@@H](CC(C)C)NC(=O)[C@H](CC(=O)O)NC(=O)[C@H](C(C)C)NC(=O)[C@@H](CC(=O)O)NC(=O)[C@@H](Cc2c[nH]c3ccccc23)NC1=O [Example 17, Cyclo[-D-Asp-Val-Asp-D-Leu-Leu-D-Trp-]] (cyclo(D[dL]L[dW][dD]V))
13 | 13 | 2.2 | CC(C)C[C@@H]1NC(=O)[C@@H](CC(C)C)NC(=O)[C@H](CC(=O)O)NC(=O)[C@H](CC(C)C)NC(=O)[C@@H](CC(=O)O)NC(=O)[C@@H](Cc2c[nH]c3ccccc23)NC1=O [Example 18, Cyclo[-D-Asp-Leu-Asp-D-Leu-Leu-D-Trp-]] (cyclo(D[dL]L[dW][dD]L))
14 | 3.7 | 3.1 | CC(C)C[C@@H]1NC(=O)[C@@H](CC(C)C)NC(=O)[C@@H](CC(=O)O)NC(=O)[C@H](C)NC(=O)[C@@H](CC(=O)O)NC(=O)[C@@H](Cc2c[nH]c3ccccc23)NC1=O [Example 2, cyclo[-D-Asp-Ala-D-Asp-D-Leu-Leu-D-Trp-]] (cyclo(A[dD][dL]L[dW][dD]))
15 | 2.1 | 26 | CC(C)C[C@@H]1NC(=O)[C@@H](CC(C)C)NC(=O)[C@H](CC(=O)O)NC(=O)[C@H](C)NC(=O)[C@@H](CCC(=O)O)NC(=O)[C@@H](Cc2c[nH]c3ccccc23)NC1=O [Example 41, Cyclo[-D-Glu-Ala-Asp-D-Leu-Leu-D-Trp-]] (cyclo(AD[dL]L[dW][dE]))
16 | 2.3 | 1.4 | CC(C)C[C@@H]1NC(=O)[C@@H](CC(C)C)NC(=O)[C@@H](CCC(=O)O)NC(=O)[C@H](C)NC(=O)[C@@H](CC(=O)O)NC(=O)[C@@H](Cc2c[nH]c3ccccc23)NC1=O [Example 4, cyclo[-D-Asp-Ala-D-Glu-D-Leu-Leu-D-Trp-]] (cyclo(A[dE][dL]L[dW][dD]))
17 | 5.7 | 7.7 | CC(C)C[C@@H]1NC(=O)[C@@H](CC(C)C)NC(=O)[C@H](CC(=O)O)NC(=O)[C@@H](C)NC(=O)[C@@H](CC(=O)O)NC(=O)[C@@H](Cc2c[nH]c3ccccc23)NC1=O [Example 15, Cyclo[-D-Asp-D-Ala-Asp-D-Leu-Leu-D-Trp-]] (cyclo(D[dL]L[dW][dD][dA]))
18 | 1.7 |  | CC(C)C[C@@H]1NC(=O)[C@@H](CC(C)C)NC(=O)[C@H](CC(=O)O)NC(=O)[C@H]2CCCN2C(=O)[C@@H](CC(=O)O)NC(=O)[C@@H](Cc2c[nH]c3ccccc23)NC1=O [Example 24, Cyclo[-D-Asp-D-Pro-Asp-D-Leu-Leu-D-Trp-]] (cyclo(D[dL]L[dW][dD][dP]))
